The record followed here is ChEMBL document CHEMBL1154564 (J Nat Prod, 2000).

Assay [1] addresses T1, Alpha-1B adrenergic receptor (Rattus norvegicus, UniProt P15823).
T1 sequence (P15823 whole entry): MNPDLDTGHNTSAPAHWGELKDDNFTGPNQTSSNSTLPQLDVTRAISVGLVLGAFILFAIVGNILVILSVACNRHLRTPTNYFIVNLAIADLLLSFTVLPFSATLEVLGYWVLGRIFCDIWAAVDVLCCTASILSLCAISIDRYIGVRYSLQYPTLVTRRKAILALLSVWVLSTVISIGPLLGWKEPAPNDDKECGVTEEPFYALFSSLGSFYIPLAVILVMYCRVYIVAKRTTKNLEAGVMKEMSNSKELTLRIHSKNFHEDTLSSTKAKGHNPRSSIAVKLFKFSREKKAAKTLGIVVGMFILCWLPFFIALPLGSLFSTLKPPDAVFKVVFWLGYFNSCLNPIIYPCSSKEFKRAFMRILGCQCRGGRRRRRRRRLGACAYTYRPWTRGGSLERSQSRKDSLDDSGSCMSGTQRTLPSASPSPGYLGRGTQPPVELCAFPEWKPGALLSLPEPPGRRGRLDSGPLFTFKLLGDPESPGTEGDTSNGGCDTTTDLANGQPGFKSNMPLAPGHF
Description: Displacement of [3H]prazosin from adrenergic Alpha-1B receptor in rat brain membrane. Type of assay: cell membranes.

Assay [2] deals with T2, Alpha-1A adrenergic receptor (Rattus norvegicus, UniProt P43140).
T2 sequence (P43140 whole entry): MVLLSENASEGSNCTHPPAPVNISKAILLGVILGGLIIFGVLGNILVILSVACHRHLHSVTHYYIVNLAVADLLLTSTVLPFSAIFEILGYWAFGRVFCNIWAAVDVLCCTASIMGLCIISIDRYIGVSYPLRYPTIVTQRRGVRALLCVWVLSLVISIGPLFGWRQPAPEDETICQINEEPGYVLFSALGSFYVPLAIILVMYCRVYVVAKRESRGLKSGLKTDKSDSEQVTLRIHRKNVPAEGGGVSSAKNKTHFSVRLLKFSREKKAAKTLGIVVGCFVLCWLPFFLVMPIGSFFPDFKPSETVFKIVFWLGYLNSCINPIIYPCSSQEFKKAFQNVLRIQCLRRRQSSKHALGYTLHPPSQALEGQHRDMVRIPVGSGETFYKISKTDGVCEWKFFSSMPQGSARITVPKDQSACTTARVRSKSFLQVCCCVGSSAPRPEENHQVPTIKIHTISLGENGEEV
Description: Displacement of [3H]prazosin from adrenergic alpha1A receptor in rat brain membrane. The format is cell membranes.

The target in another assay is D(2) dopamine receptor (Rattus norvegicus, UniProt P61169). The assay is described as follows: Displacement of [3H]raclopride from dopamine D2 receptor in Wistar rat striatal membrane. Type of assay: cell membranes, Striatum.
Sequence of D(2) dopamine receptor (P61169 whole entry): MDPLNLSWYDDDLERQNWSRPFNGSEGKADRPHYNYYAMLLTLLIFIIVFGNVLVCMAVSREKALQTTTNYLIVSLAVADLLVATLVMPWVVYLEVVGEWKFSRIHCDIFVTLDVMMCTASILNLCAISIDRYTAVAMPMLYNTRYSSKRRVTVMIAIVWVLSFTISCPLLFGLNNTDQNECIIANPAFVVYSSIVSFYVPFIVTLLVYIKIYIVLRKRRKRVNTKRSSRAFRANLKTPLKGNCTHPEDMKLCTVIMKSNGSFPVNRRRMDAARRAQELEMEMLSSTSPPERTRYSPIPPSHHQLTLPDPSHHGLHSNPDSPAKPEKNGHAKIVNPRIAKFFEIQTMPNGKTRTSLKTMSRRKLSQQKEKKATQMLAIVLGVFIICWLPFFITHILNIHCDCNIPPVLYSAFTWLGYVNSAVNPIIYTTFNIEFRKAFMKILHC
Another assay deals with D(1A) dopamine receptor (Rattus norvegicus, UniProt P18901). The assay is described as follows: Displacement of [3H]SCH23390 from dopamine D1 receptor in Wistar rat striatal membrane. The format is cell membranes, Striatum.
Sequence of D(1A) dopamine receptor (P18901 whole entry): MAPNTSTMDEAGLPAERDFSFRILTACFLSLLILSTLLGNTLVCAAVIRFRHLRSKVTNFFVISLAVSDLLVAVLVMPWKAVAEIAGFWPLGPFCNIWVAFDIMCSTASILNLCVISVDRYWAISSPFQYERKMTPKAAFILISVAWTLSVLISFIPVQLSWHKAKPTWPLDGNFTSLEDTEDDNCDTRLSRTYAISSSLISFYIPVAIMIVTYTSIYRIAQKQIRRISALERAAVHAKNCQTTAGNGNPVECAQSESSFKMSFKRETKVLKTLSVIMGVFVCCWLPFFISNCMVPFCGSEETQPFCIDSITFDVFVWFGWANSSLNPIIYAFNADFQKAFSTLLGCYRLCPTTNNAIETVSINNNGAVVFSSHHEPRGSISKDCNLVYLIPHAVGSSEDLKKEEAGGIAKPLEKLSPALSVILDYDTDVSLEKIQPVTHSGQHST
For assay [3], the species on record is Rattus norvegicus. Description: Selectivity ratio of IC50 for Wistar rat dopamine D2 receptor to IC50 for Wistar rat dopamine D1 receptor.
Assay [4] is filed under the species Rattus norvegicus. The assay is described as follows: Selectivity ratio of IC50 for rat adrenergic alpha1A receptor to IC50 for adrenergic Alpha-1B receptor.

As for `COc1cc2c(cc1O)C[C@H]1c3c(cc(O)c(OC)c3-2)CCN1C` [BOLDINE], the Ki was 316 nM in assay [1] and 4.9 nM in assay [2].

Regarding `COc1cc2c(c(Br)c1O)C[C@H]1c3c(c(Br)c(O)c(OC)c3-2)CCN1C`, the Ki in assay [1] was 120 nM; in assay [2], 1.35 nM. The IC50 is 1910 nM at D(2) dopamine receptor and 206 nM at D(1A) dopamine receptor. In addition, the Ratio IC50 in the assay filed under Rattus norvegicus [3] amounted to 9.3. For the same compound, the Ratio in the assay filed under Rattus norvegicus [4] came out at 90.

Turning to `COc1cc2c(cc1O)C[C@H]1c3c(c(Cl)c(O)c(OC)c3-2)CCN1C`, the Ki is 269 nM in assay [1] and 2.24 nM in assay [2]. In addition, the IC50 is 720 nM on D(2) dopamine receptor and 81 nM on D(1A) dopamine receptor. Further, the Ratio IC50 in the assay filed under Rattus norvegicus [3] worked out at 8.9. Moreover, the Ratio in the assay listed under Rattus norvegicus [4] was determined as 122.

With `COc1cc2c(cc1O)C[C@H]1c3c(c(Br)c(O)c(OC)c3-2)CCN1C` [3-BROMOBOLDINE], the Ki in assay [1] was 135 nM; in assay [2], 1.17 nM. In addition, the IC50 on D(2) dopamine receptor is 1050 nM; on D(1A) dopamine receptor, 66 nM. For the same compound, the Ratio IC50 in the assay listed under Rattus norvegicus [3] is 15.9. For the same compound, the Ratio in the assay filed under Rattus norvegicus [4] stood at 120.

As to `COc1cc2c(cc1O)C[C@H]1c3c(c(I)c(O)c(OC)c3-2)CCN1C`, the results for the IC50 at D(2) dopamine receptor and on D(1A) dopamine receptor were 96 nM and 3 nM, respectively. Further, in the assay listed under Rattus norvegicus [3], the Ratio IC50 was 32.
